In ChEMBL document CHEMBL4725363 (J Med Chem, 2020):
Calls of active or inactive are those of the source. The calls are words filed in the database; no cut-off is given here.

Assays:
[1] = biological target: Cone cGMP-specific 3',5'-cyclic phosphodiesterase subunit alpha' (Homo sapiens, UniProt P51160); assay: Inhibition of human PDE6C (2-854 residues) expressed in Sf9 cells incubated for 15 mins using [3H]-cGMP as substrate by liquid scintillation counting method
[2] = Inhibition of human PDE5A1 D563A mutant expressed in Escherichia coli BL21 incubated for 15 mins using [3H]-cGMP as substrate by liquid scintillation counting method
[3] = AUC (0 to infinity) in Sprague-Dawley rat at 2.5 mg/kg, iv after 24 hrs by LC-MS/MS analysis; type: ADME, organism-based; set-up: route intravenous, time 24 hrs, dose 2.5 mg/kg; details: in vivo
[4] = MRT (0 to t) in Sprague-Dawley rat at 5 mg/kg, po after 24 hrs by LC-MS/MS analysis; type: ADME, organism-based; details: in vivo
[5] = Tmax in Sprague-Dawley rat at 5 mg/kg, po after 24 hrs by LC-MS/MS analysis; type: ADME, organism-based; details: in vivo
[6] = Acute toxicity in KM mouse at 1000 to 1500 mg/kg, po administered as single dose measured every 24 hrs for 14 days; type: organism-based; details: in vivo, 336 h, dose 1000-1500 mg/kg, time 14 day
[7] = biological target: cGMP-specific 3',5'-cyclic phosphodiesterase (Homo sapiens, UniProt O76074); assay: Inhibition of human PDE5A1 (535-860 residues) expressed in Escherichia coli BL21 incubated for 15 mins using [3H]-cGMP as substrate by liquid scintillation counting method
[8] = AUC (0 to infinity) in Sprague-Dawley rat at 5 mg/kg, po after 24 hrs by LC-MS/MS analysis; type: ADME, organism-based; set-up: route oral, time 24 hrs, dose 5 mg/kg; details: in vivo
[9] = Tmax in Sprague-Dawley rat at 2.5 mg/kg, iv after 24 hrs by LC-MS/MS analysis; type: ADME, organism-based; details: in vivo
[10] = biological target: Dual 3',5'-cyclic-AMP and -GMP phosphodiesterase 11A (Homo sapiens, UniProt Q9HCR9); assay: Inhibition of PDE11A catalytic domain (unknown origin) using [3H]-cAMP or [3H]-[…] as substrate after 15 mins by liquid scintillation counting method
[11] = Acute toxicity in KM mouse at 1000 to 1500 mg/kg, po administered as single dose measured every 24 hrs for 14 days relative to control; type: organism-based; details: in vivo, 336 h, dose 1000-1500 mg/kg, time 14 day
[12] = Cmax in Sprague-Dawley rat at 5 mg/kg, po after 24 hrs by LC-MS/MS analysis; type: ADME, organism-based; set-up: route oral, dose 5 mg/kg, time 24 hrs; details: in vivo
Cytochrome P450 2D6 = Cytochrome P450 2D6 (Homo sapiens, UniProt P10635); assay: Inhibition of CYP2D6 (unknown origin); type: ADME
[13] = biological target: Voltage-gated inwardly rectifying potassium channel KCNH2 (Homo sapiens, UniProt Q12809); assay: Inhibition of human ERG expressed in CHO cells by patch-clamp electrophysiology method; type: cell-based
Rattus norvegicus [14] = assay: Suppression of hypertension pressure in Wistar rat model of pulmonary hypertension assessed as dilation of small pulmonary vessels arteries at 20 mg/kg/day, po for 3 weeks by H and E staining based microscopy; type: functional, organism-based
Rattus norvegicus [15] = assay: Suppression of hypertension pressure in Wistar rat model of pulmonary hypertension assessed as reduction in MCT-induced wall thickness of small pulmonary arteries at 20 mg/kg/day, po for 3 weeks; type: functional, organism-based
[16] = biological target: DNA topoisomerase 2-alpha (Homo sapiens) (UniProt P11388); assay: Inhibition of Top2 (unknown origin) mediated supercoiled DNA relaxation at 100 uM
[17] = Oral bioavailability in Sprague-Dawley rat at 5 mg/kg after 24 hrs by LC-MS/MS analysis; type: ADME, organism-based; details: in vivo
[18] = AUC (0 to t) in Sprague-Dawley rat at 2.5 mg/kg, iv after 24 hrs by LC-MS/MS analysis; type: ADME, organism-based; set-up: route intravenous, dose 2.5 mg/kg, time 24 hrs; details: in vivo
Cytochrome P450 2B6 = biological target: T1, Cytochrome P450 2B6 (Homo sapiens, UniProt P20813); assay: Inhibition of CYP2B6 (unknown origin); type: ADME
T1 sequence (P20813 whole entry): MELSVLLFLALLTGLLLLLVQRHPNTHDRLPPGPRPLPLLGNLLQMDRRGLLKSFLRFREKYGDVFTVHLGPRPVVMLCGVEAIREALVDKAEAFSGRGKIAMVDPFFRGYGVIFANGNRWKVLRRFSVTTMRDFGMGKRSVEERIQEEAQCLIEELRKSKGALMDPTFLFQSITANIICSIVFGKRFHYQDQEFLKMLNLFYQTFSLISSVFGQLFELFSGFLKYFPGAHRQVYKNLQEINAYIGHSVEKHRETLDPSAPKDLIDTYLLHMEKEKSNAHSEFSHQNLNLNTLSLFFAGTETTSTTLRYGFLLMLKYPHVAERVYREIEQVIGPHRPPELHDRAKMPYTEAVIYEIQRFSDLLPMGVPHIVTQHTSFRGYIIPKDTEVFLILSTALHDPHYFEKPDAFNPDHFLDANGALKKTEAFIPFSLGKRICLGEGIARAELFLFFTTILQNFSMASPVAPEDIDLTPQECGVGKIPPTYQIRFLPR

[19] = biological target: cAMP and cAMP-inhibited cGMP 3',5'-cyclic phosphodiesterase 10A (Homo sapiens, UniProt Q9Y233); assay: Inhibition of human PDE10A catalytic domain (449 to 770 residues) using [3H]-cAMP as substrate after 15 mins by liquid scintillation counting method
[20] = Cmax in Sprague-Dawley rat at 2.5 mg/kg, iv after 24 hrs by LC-MS/MS analysis; type: ADME, organism-based; set-up: route intravenous, time 24 hrs, dose 2.5 mg/kg; details: in vivo
Cytochrome P450 2C9 = Cytochrome P450 2C9 (Homo sapiens, UniProt P11712); assay: Inhibition of CYP2C9 (unknown origin); type: ADME
Rattus norvegicus [21] = assay: Suppression of hypertension pressure in Wistar rat model of pulmonary hypertension at 20 mg/kg/day, po for 3 weeks; type: functional, organism-based
Cytochrome P450 3A4 = Cytochrome P450 3A4 (Homo sapiens, UniProt P08684); assay: Inhibition of CYP3A4 (unknown origin); type: ADME
[22] = MRT (0 to t) in Sprague-Dawley rat at 2.5 mg/kg, iv after 24 hrs by LC-MS/MS analysis; type: ADME, organism-based; details: in vivo
[23] = Half life in Sprague-Dawley rat at 5 mg/kg, po after 24 hrs by LC-MS/MS analysis; type: ADME, organism-based; details: in vivo

Sequence of Voltage-gated inwardly rectifying potassium channel KCNH2 (Q12809 whole entry): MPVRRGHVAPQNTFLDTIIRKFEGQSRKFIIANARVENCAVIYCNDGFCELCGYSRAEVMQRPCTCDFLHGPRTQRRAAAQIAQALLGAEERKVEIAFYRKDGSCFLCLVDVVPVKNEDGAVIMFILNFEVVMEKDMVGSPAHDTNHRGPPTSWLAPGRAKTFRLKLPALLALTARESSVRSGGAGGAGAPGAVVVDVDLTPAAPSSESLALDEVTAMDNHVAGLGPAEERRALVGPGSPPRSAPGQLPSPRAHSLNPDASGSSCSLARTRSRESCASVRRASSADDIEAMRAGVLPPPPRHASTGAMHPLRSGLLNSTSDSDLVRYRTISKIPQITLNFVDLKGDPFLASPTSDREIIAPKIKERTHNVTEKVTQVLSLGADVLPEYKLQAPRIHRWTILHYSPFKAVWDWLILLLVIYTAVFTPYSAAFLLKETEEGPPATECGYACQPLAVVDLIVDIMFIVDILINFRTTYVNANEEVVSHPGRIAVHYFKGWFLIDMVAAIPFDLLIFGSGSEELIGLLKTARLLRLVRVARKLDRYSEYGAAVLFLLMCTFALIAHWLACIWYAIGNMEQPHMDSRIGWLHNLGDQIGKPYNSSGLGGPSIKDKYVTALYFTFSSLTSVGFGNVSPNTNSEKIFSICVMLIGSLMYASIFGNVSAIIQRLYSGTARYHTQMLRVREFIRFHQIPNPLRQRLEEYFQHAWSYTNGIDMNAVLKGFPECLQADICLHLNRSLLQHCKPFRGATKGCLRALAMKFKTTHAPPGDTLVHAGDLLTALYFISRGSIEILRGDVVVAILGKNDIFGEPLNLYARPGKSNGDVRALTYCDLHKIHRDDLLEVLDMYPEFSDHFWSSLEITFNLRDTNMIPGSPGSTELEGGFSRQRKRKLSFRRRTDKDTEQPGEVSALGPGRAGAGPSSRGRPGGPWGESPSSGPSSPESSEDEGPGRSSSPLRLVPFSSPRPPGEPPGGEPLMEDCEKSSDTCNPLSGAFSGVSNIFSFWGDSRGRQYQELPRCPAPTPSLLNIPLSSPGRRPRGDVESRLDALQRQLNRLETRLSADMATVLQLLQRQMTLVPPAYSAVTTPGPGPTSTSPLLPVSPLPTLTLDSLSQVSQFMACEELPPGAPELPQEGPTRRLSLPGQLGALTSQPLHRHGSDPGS
Sequence of Cytochrome P450 3A4 (P08684 whole entry): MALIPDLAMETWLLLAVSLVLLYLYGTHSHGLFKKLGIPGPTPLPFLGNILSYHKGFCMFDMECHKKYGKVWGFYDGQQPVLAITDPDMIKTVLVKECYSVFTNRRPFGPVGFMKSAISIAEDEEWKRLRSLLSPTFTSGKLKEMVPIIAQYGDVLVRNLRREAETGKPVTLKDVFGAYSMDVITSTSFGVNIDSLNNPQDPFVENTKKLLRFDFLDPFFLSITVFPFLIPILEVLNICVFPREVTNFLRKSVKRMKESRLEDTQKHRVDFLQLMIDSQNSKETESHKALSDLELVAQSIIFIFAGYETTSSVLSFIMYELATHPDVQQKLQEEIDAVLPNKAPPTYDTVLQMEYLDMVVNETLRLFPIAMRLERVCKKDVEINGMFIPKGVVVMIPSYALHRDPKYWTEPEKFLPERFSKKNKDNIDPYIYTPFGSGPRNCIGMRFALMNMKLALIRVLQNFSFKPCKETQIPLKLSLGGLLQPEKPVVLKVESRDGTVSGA
Sequence of DNA topoisomerase 2-alpha (Homo sapiens) (P11388 whole entry): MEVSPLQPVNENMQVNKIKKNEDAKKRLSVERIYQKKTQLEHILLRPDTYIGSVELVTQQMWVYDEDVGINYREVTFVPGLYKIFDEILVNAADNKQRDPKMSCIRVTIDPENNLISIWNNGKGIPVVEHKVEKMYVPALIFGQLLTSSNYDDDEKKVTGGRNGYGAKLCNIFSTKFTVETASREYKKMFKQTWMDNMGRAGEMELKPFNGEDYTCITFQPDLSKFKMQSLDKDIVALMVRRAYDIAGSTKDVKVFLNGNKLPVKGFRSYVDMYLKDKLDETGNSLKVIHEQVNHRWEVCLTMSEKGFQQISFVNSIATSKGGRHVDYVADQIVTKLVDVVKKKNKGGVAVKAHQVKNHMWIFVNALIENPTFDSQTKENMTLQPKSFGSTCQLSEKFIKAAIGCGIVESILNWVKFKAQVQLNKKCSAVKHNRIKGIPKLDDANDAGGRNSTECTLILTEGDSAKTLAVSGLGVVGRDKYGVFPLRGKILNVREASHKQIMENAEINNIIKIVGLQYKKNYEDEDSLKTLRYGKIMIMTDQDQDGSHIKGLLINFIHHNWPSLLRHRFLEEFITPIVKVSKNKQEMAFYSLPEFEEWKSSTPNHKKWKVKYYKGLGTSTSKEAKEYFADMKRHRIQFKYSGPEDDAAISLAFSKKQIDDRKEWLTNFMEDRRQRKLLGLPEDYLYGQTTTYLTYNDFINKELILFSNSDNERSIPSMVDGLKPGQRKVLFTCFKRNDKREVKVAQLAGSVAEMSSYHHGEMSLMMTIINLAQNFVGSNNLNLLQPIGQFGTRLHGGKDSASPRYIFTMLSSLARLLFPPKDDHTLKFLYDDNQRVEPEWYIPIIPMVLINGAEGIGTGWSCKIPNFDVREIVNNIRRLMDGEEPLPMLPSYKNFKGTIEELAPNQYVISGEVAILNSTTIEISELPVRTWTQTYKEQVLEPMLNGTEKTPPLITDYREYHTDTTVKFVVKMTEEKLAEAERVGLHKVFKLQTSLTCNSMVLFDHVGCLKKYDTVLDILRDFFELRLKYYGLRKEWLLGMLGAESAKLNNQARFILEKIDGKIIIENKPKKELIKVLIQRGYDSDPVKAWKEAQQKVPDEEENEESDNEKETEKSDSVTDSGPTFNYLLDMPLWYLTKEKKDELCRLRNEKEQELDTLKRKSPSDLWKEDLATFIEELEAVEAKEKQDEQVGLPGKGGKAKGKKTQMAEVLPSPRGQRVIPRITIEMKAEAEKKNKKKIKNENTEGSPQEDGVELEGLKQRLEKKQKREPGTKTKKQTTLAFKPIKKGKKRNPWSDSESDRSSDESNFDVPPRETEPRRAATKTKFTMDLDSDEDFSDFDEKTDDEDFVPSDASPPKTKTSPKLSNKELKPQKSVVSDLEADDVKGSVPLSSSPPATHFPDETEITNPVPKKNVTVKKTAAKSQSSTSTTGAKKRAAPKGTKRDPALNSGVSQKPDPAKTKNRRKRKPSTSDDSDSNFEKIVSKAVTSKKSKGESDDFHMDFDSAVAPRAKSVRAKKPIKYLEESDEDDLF
Sequence of Cone cGMP-specific 3',5'-cyclic phosphodiesterase subunit alpha' (P51160 whole entry, the tested form may be a part): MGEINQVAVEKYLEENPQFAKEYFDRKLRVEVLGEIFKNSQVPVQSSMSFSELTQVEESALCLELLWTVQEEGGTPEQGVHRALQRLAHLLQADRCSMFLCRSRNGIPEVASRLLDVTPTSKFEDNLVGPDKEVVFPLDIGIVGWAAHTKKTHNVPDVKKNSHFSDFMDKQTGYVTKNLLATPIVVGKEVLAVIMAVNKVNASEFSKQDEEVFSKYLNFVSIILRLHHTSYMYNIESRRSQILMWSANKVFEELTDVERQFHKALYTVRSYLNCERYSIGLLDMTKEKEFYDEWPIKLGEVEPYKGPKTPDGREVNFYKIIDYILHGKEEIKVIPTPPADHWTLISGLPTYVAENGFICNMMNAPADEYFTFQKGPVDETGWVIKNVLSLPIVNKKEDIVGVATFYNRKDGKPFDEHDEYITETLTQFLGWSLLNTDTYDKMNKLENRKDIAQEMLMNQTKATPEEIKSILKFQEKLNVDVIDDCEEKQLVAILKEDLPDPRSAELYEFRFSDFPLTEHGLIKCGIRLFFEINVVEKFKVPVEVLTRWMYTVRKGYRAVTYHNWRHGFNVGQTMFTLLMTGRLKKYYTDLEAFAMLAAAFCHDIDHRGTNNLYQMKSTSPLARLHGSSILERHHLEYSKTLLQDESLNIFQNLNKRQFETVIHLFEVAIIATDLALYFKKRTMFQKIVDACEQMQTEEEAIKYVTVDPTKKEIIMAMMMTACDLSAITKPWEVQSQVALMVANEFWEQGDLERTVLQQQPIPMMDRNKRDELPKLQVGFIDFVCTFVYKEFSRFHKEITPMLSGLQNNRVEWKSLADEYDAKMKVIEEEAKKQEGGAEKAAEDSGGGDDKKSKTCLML
Sequence of Dual 3',5'-cyclic-AMP and -GMP phosphodiesterase 11A (Q9HCR9 whole entry, the tested form may be a part): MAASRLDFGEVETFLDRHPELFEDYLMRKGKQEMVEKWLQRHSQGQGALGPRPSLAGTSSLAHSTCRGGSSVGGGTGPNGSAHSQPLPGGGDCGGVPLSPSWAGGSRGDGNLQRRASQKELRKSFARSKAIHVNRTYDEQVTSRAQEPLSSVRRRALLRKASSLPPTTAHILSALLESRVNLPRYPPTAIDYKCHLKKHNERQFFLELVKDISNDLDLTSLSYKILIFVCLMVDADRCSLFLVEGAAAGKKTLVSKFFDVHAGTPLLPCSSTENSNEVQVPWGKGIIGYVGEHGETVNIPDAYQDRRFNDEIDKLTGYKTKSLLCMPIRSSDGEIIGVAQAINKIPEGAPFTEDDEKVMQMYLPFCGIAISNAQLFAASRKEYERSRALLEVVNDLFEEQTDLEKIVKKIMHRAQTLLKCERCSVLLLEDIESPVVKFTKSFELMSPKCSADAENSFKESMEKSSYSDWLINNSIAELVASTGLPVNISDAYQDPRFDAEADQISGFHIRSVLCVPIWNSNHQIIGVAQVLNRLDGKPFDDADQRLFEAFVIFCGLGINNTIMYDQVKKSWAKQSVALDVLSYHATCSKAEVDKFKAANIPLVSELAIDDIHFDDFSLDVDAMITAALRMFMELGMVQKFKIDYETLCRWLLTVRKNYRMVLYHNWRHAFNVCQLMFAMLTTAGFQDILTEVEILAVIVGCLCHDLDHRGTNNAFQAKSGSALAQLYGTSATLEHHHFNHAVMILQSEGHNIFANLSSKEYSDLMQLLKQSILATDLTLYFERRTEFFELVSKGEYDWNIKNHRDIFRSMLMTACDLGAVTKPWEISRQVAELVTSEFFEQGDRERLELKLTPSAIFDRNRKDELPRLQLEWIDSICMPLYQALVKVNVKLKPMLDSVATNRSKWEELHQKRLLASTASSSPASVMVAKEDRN

Compound: COc1ccc2c3c([nH]c2c1)[C@@H]1N(CC3)C(=O)c2c(OC)cccc2N1C
- IC50 [1]: > 150 µM
- IC50 [2]: 2.48 µM
- AUC(0-inf) [3]: 520 ng·h/mL
- MRT last at 24 h [4]: 191 min
- Tmax [5]: 49.8 min
- Activity [6]: Non-Toxic
- IC50 [7]: 0.042 µM
- AUC(0-inf) [8]: 155 ng·h/mL
- Tmax [9]: 4.98 min
- IC50 [10]: > 30 µM
- Activity [11]: > 1.5 g/kg
- Cmax [12]: 54.4 ng/mL
- IC50 (Cytochrome P450 2D6): 10 µM
- IC50 [13]: 20 µM
- Activity (Rattus norvegicus [14]): Active
- Activity (Rattus norvegicus [15]): Active
- inhibition [16]: inactive
- bioavailability [17]: 14%
- AUC(0-t) at 24 h [18]: 519 ng·h/mL
- IC50 (Cytochrome P450 2B6): 10 µM
- IC50 [19]: 3 µM
- Cmax [20]: 1800 ng/mL
- IC50 (Cytochrome P450 2C9): 10 µM
- Activity (Rattus norvegicus [21]): Active
- IC50 (Cytochrome P450 3A4): 10 µM
- MRT last at 24 h [22]: 8.4 min
- half-life [23]: 85.8 min
